Test results as given in patent US20150175545A1, “Preparation Method of Fluoro-Substituted Deuterated Diphenylurea” (SUZHOU ZELGEN BIOPHARMACEUTICAL CO., LTD, priority 2012, published 2015).
Values joined by “and” are separate entries in the source; they are usually repeats but may differ in a detail not shown here. Identical values can stand only once. Like-named read-outs stand apart in the source and are kept apart here.

Experiments:
[1] = Pharmacokinetic evaluation of CM4309.TsOH, CM4309.HCl and CM4309.H2O in SD rats; type: in vivo; conditions: for AUCINF_obs / AUClast / Cmax / HL_Lambda_z / MRTINF_obs / Tmax / AUC(0-t) / AUC(0-inf) / MRT inf: 3 mg/kg (calculated by CM4309) intragastric, suspension in 0.5% CMC, CM4309 in plasma; for AUClast (Area Under Curve, Plasma Exposure) relative to CM4309.H2O / Cmax relative to CM4309.H2O: SD rats, 3 mg/kg intragastric, ratio to CM4309.H2O; for AUC(0-inf): read-out: AUCINF_obs; for MRT inf: read-out: MRTINF_obs
Experimental: Twelve male SD rats, weighing about 170 g, were randomly separated into […] and four rats in each group, and fasted overnight. The rats were administrated intragastric ally at a dose of 3 mg/kg (in a concentration of 1 mg/mL calculated by CM4309, and suspended in 0.5% CMC in purified water) of CM4309.TsOH, CM4309.HCl or CM4309.H2O. After administration, blood samples were collected at 0.25, 0.5, 1, 2, 4, 6, 8, 12, 24, 36 and 48 h. The blood samples were centrifuged for 5 minutes at 5000 rpm to separate the plasma. The concentration of CM4309 in plasma was measured by LC/MS/MS to compare the PK difference between CM4309 salts and CM4309 (see Table 1).

[2] = Pharmacokinetic evaluation of CM4309.TsOH and CM4309.H2O in Beagle dogs; type: in vivo; conditions: for AUClast / Cmax / Tmax / AUC(0-t): 2.5 mg/kg (calculated by CM4309) oral in capsule, 2×2 crossover, CM4309 in plasma
Experimental: Four female Beagle dogs, 7-9 months old, weighing about 8 kg, were randomly separated into two groups and two dogs in each group, and fasted overnight. The dogs were administrated orally at a dose of 2.5 mg/kg (calculated by CM4309) of CM4309.TsOH or CM4309.H2O in capsule with 2×2 crossover design. Blood samples were collected before administration and at 0.25, 0.5, 1, 2, 4, 6, 8, 12, 24, 36 and 48 h after administration. The blood samples were centrifuged for 10 minutes at 3500 rpm to separate the plasma. The concentration of CM4309 in plasma was measured by LC/MS/MS to compare the PK difference between CM4309 salts and CM4309 (see Table 2).

[3] = individual rat, p-toluenesulfonate, 3 mg/kg
[4] = male, SD, rat, plasma, po, 3 mg/kg, Mean of 4 rats
[5] = male, SD, rat, plasma, po, 3 mg/kg, Mean of 4 rats, read-out: Cmax
[6] = male, SD, rat, plasma, po, 3 mg/kg, Mean of 4 rats, read-out: Tmax
[7] = male, SD, rat, plasma, po, 3 mg/kg, individual rat
[8] = male, SD, rat, plasma, po, 3 mg/kg, individual rat, read-out: Tmax
[9] = Beagle dogs, 2.5 mg/kg oral in capsule, ratio to CM4309.H2O
[10] = individual dog, p-toluenesulfonate, 2.5 mg/kg
[11] = individual rat, hydrochloride, 3 mg/kg

[2H]C([2H])([2H])NC(=O)c1cc(Oc2ccc(NC(=O)Nc3ccc(Cl)c(C(F)(F)F)c3)c(F)c2)ccn1 [CM4309.H2O]
AUCINF_obs ([1]; Mean of 4 rats): 664 ng·h/mL
AUClast ([1]; Mean of 4 rats): 643 ng·h/mL
Cmax ([1]; Mean of 4 rats): 45.2 ng/mL
HL_Lambda_z ([1]; Mean of 4 rats): 7.62 h
MRTINF_obs ([1]; Mean of 4 rats): 13.55 h
Tmax ([1]; Mean of 4 rats): 6.5 h
AUCINF_obs ([1]; individual rat, 3 mg/kg): 701 ng·h/mL and 827 ng·h/mL and 657 ng·h/mL and 470 ng·h/mL
AUClast ([1]; individual rat, 3 mg/kg): 675 ng·h/mL and 806 ng·h/mL and 635 ng·h/mL and 459 ng·h/mL
Cmax ([1]; individual rat, 3 mg/kg): 52.6 ng/mL and 53.3 ng/mL and 42.9 ng/mL and 31.8 ng/mL
HL_Lambda_z ([1]; individual rat, 3 mg/kg): 8.73 h and 9.26 h and 6.41 h and 6.08 h
MRTINF_obs ([1]; individual rat, 3 mg/kg): 14.87 h and 14.06 h and 13 h and 12.25 h
Tmax ([1]; individual rat, 3 mg/kg): 6 h and 4 h and 8 h
AUClast ([2]; Mean of 4 dogs): 404 ng·h/mL
Cmax ([2]; Mean of 4 dogs): 28 ng/mL
Tmax ([2]; Mean of 4 dogs): 20 h
AUClast ([2]; individual dog, 2.5 mg/kg): 319 ng·h/mL and 829 ng·h/mL and 243 ng·h/mL and 224 ng·h/mL
Cmax ([2]; individual dog, 2.5 mg/kg): 34.6 ng/mL and 50 ng/mL and 11.1 ng/mL and 16.4 ng/mL
Tmax ([2]; individual dog, 2.5 mg/kg): 24 h and 8 h

Cc1ccc(S(=O)(=O)O)cc1.[2H]C([2H])([2H])NC(=O)c1cc(Oc2ccc(NC(=O)Nc3ccc(Cl)c(C(F)(F)F)c3)c(F)c2)ccn1 [CM4309.TsOH, 4-(4-(3-(4-chloro-3-(trifluoromethyl)phenyl]ureido)-3-fluorophenoxy)-N-(methyl-d3)picolinamide p-toluenesulfonate]
HL_Lambda_z ([1]; Mean of 4 rats): 7.91 h
AUClast (Area Under Curve, Plasma Exposure) relative to CM4309.H2O [1]: 11.2 folds
Cmax relative to CM4309.H2O [1]: 10.7 folds
AUCINF_obs [1, 3]: 5631 ng·h/mL and 7380 ng·h/mL and 10651 ng·h/mL
AUClast [1, 3]: 5542 ng·h/mL and 7237 ng·h/mL and 10406 ng·h/mL
Cmax [1, 3]: 312 ng/mL and 402 ng/mL and 518 ng/mL and 696 ng/mL
HL_Lambda_z [1, 3]: 8.55 h and 7.37 h and 7.48 h and 8.25 h
MRTINF_obs [1, 3]: 12.05 h and 12.72 h and 13.6 h
Tmax [1, 3]: 4 h
AUC(0-t) [1, 4]: 7180 ng·h/mL
AUC(0-inf) [1, 4]: 7340 ng·h/mL
Cmax [1, 5]: 482 ng/mL
MRT inf [1, 4]: 13.3 h
Tmax [1, 6]: 5.5 h
AUC(0-t) [1, 7]: 5540 ng·h/mL
AUC(0-inf) [1, 7]: 5700 ng·h/mL
MRT inf [1, 7]: 14.8 h
Tmax [1, 8]: 6 h
AUClast relative to CM4309.H2O [2, 9]: 12.1 folds
Cmax relative to CM4309.H2O [2, 9]: 26 folds
AUC(0-t) ([2]; female, Beagle, dog, plasma, po, 2.5 mg/kg, Mean of 4 dogs): 4870 ng·h/mL
Cmax ([2]; female, Beagle, dog, plasma, po, 2.5 mg/kg, Mean of 4 dogs, read-out: Cmax): 728 ng/mL
AUC(0-t) ([2]; female, Beagle, dog, plasma, po, 2.5 mg/kg, individual dog): 5240 ng·h/mL
Tmax ([2]; female, Beagle, individual dog, read-out: Tmax): 2 h
AUClast [2, 10]: 5362 ng·h/mL and 5045 ng·h/mL and 3827 ng·h/mL
Cmax [2, 10]: 996 ng/mL and 437 ng/mL and 483 ng/mL

Cl.[2H]C([2H])([2H])NC(=O)c1cc(Oc2ccc(NC(=O)Nc3ccc(Cl)c(C(F)(F)F)c3)c(F)c2)ccn1 [CM4309.HCl, 4-(4-(3-(4-chloro-3-(trifluoromethyl)phenyl]ureido)-3-fluorophenoxy)-N-(methyl-d3)picolinamide hydrochloride]
HL_Lambda_z ([1]; Mean of 4 rats): 8.25 h
AUClast (Area Under Curve, Plasma Exposure) relative to CM4309.H2O [1]: 8.7 folds
Cmax relative to CM4309.H2O [1]: 8.4 folds
AUCINF_obs [1, 11]: 6634 ng·h/mL and 7151 ng·h/mL and 4379 ng·h/mL
AUClast [1, 11]: 6514 ng·h/mL and 7021 ng·h/mL and 4258 ng·h/mL
Cmax [1, 11]: 457 ng/mL and 460 ng/mL and 281 ng/mL
HL_Lambda_z [1, 11]: 8.17 h and 7.77 h and 8.32 h and 8.74 h
MRTINF_obs [1, 11]: 12.93 h and 12.58 h and 15.62 h
Tmax [1, 11]: 8 h
Tmax ([1]; male, SD, in vivo, po, individual rat, read-out: Tmax): 4 h
AUC(0-t) [1, 4]: 5570 ng·h/mL
AUC(0-inf) [1, 4]: 5690 ng·h/mL
Cmax [1, 5]: 379 ng/mL
MRT inf [1, 4]: 13.8 h
Tmax [1, 6]: 5.5 h
AUC(0-t) [1, 7]: 4490 ng·h/mL
AUC(0-inf) [1, 7]: 4610 ng·h/mL
Cmax ([1]; male, SD, rat, plasma, po, 3 mg/kg, individual rat, read-out: Cmax): 316 ng/mL
MRT inf [1, 7]: 13.9 h
Tmax [1, 8]: 6 h
